What is called IC50 is the concentration that gives 50% inhibition. For orientation: melting point means the temperature, or range, at which the solid turns liquid.

From article PMC10946275, “New imidazole-2-thiones linked to acenaphythylenone as dual DNA intercalators and topoisomerase II inhibitors: structural optimization, docking, and apoptosis studies” (Journal of Enzyme Inhibition and Medicinal Chemistry, 2024) come the findings set out here.

Structures are written as SMILES. Several values for one entry are separate records, joined by “and”; a condition that tells them apart may be missing. Identical values can stand only once.

Series [1] relates to MCF-7 cells. The experiment in a line: Cell cycle analysis (DNA flow cytometry, PI). Conditions: for Phase of cell cycle arrest: MCF-7, compound at its IC50; for Cell cycle arrest (%) G0-G1 / Cell cycle arrest (%) G2/M / Cell cycle arrest (%) S: MCF-7, compound at its IC50, 24 h. (In general: Flow cytometry measures light scatter and fluorescence of single cells or particles in a stream.)
Protocol: Cell cycle analysis: A FACS Calibur flow cytometer was used to measure the amount of DNA in the cell cycle analysis at 488 nm in accordance with the manufacturer’s recommendations. […] Cells were treated, rinsed twice, and then re-suspended in ice-cold PBS (phosphate buffer saline). After washing, 0.7 ml of 100% ethanol was added, and the mixture was then allowed to sit at 20 °C for 20 min. After washing, 500 μl of RNase was added, and then the mixture was incubated for 30 min. After that, PI was added, and the mixture was incubated without light for 30 min[22]^,[51].
3 Replica for each group Data was expressed using Mean ± SEM.
F: F for One way ANOVA test, Pairwise comparison bet. each 2 groups was done using Post Hoc Test (Tukey)
p: p value for comparing between the studied groups
p0: p value for comparing between Control and each other group
p1: p value for comparing between 5h and 5b
p2: p value for comparing between 5h and Dox
p3: p value for comparing between 5b and Dox
DNA content in the cell cycle analysis was quantified with the help ofa FACS Calibur flow
cytometer at 488 nm according to the manufacturer's instructions. Briefly, 2 × 10^5 cells/well were
cells were washed two times and resuspended in ice-cold phosphate buffer saline PBS. After
washing, 0.7 ml absolute ethanol was then added, followed by incubation at −20°C for 20 min.
After washing, 500 μl RNase was added, followed by incubation for 30 min. PI was then added,
followed by incubation for 30 min (light was avoided).

The subject of series [2] is calf thymus DNA (ctDNA). Nature of the series: Terbium (Tb3+) luminescent biosensor detection of induced DNA damage. The format is biochemical. Conditions: for Tb luminescence enhancement (induced DNA damage): ctDNA incubated with compound 24 h, emission 545 nm, excitation 270 nm, compared with ctDNA-Tb mixture; for Concentration at which Tb luminescence stops increasing (maximum DNA damage) / LOD (limit of detection; minimum concentration inducing detectable damage in ctDNA) / LOQ (limit of quantitation): ctDNA, 24 h incubation. From the text: Luminescence studies were accomplished in order to examine the possible DNA interaction with the studied compounds. Many luminescent biosensors are reported in literature for studying the possibility of DNA interaction with small molecules. […] Figure 5 presents a schematic diagram for the fluorometric detection of the induced DNA damage using Tb biosensor. Tb^3+ ion in the Tb luminescent probe is a trivalent lanthanide cation having low intrinsic luminescence in aqueous solutions[45]^,[46]. When Tb biosensor is added to a solution of DNA, it interacts differently with double-stranded DNA (dsDNA) and single-stranded DNA (ssDNA). With dsDNA, Tb^3+ ions are electrostatically attracted to the negatively charged phosphate backbone of the DNA. […] Therefore, the assessed compound damages dsDNA, ssDNA sites would be formed opposite to the site of damage and Tb^3+ would directly coordinate to the unpaired nucleobases in this single-stranded site.
For investigating the DNA interaction potential of the fourteen studied compounds, calf thymus DNA (ctDNA) was incubated with each compound for 24 h and then Tb was added to each mixture. Doxorubicin (DOX), a commonly used reference for DNA damaging agent was used and treated the same condition as the studied compounds. Tb luminescent intensity was measured at λmax = 545 nm after excitation at λmax = 270 nm.
Several concentrations within the range of 0.1 pM–200.0 μM of each of the studied compounds were incubated with ctDNA for 24 h. After which, Tb solution was added to aliquots of such mixtures and the luminescence intensity was recorded. Figure 7 presents Tb luminescence intensity as a function of the compound concentration for various compound/ctDNA/Tb mixtures. At minimum concentration of the studied compounds, minimum Tb luminescence was recorded. This reflects that the DNA molecule is undamaged, intact and acquiring a double helical structure. In this conformation, Tb ions are electrostatically attracted to the negatively charged DNA-phosphate backbone showing no increase in its luminescence. For solutions with higher concentrations of compounds 5b, 5h, and 5j (Figure 7a,c,and d). Tb fluorescence increased proportionally with the concentration until a concentration of 100 and 60 μM for compounds 5b, 5h, and 5j, respectively, where no further increase in the fluorescence occurs. This reflects that more DNA damage is induced with increasing concentrations of the three compounds. At concentrations higher than 100 and 60 μM for compounds 5b, 5h, and 5j, respectively, Tb luminescence remains constant at high fluorescence levels. […] Table 1 illustrates the analytical parameters elucidated as shown in Figure 7 for the quantification of the induced DNA damage by the studied compounds. The linearity parameters were calculated from the calibration curve in Figure 7-inset in order to obtain the minimum concentration of the studied compounds that would induce DNA damage.
Fluorescence measurements: Fluorescence spectra were measured between 290 and 800 nm with excitation at 270 nm of 100 µL solutions in a 1 cm path length Suprasil quartz fluorescence cuvette.
The PerkinElmer LS 55 fluorescence spectrophotometer was used to measure the fluorescence. After 24 h of incubation in buffer solution (40 mM Tris, 10 mM NaCl, pH 7.5), aliquots of each DNA-Compound mixture were combined with TbCl3 to confirm DNA damage. The final concentrations were […] ctDNA, 3 mM TbCl3, and 50 µM of each compound in buffer solution (40 mM Tris, 10 mM NaCl, pH 7.5). Calf thymus DNA (ctDNA) was combined with various quantities of each substance, ranging from 0.1 pM to 200 µM, for the experiment. The ultimate concentrations of […] ctDNA and 3 mM were achieved by adding Tb3 + solution to the ctDNA/compound combinations in buffer solution (40 mM Tris, 10 mM NaCl, pH 7.5) after 24 h of incubation.[44]
All chemicals, solvents, media and kits were purchased from commercial suppliers. […]

In series [3] the test system is human colon cancer (HCT-116). The experiment in a line: MTT cytotoxicity assay, HCT-116. The format is cell-based. To be noted: 24 h treatment, read-out: IC50 against HCT-116. How it is done:
(§1) All chemicals, solvents, media and kits were purchased from commercial suppliers.
(§2) In vitro anticancer screening […]
(§3) against three cancer cell lines namely: hepatocellular carcinoma (HepG2), human breast adenocarcinoma (MCF-7) and human colon cancer (HCT -116) utilizing MTT assay2. Compounds […]
(§4) 5b and 5h were screened for their effects on the normal breast cell line MCF‐10a. Cells at a density of 1 × 104 were seeded in a 96‐well plate at 37°C for 48 hr under 5% CO2. After incubation, the cells were treated with different concentrations of the prepared molecules and incubated for 24 hr.
(§5) MTT dye was added after 24 h of drug treatment and incubated for 4 h at 37°C. Also, 100 μl of dimethyl sulphoxide was added to each well to dissolve the purple formazan formed. The color intensity of the formazan product, which represents the growth condition of the cells, was quantified using an enzyme‐linked immunosorbent assay (ELISA) plate reader at 570 nm. The experiments were carried out with at least three replicates and they were repeated at least three […]
(§6) *: Statistically significant at p ≤ 0.05
(§7) Means with any Common letter (a-e) are not significant (OR Means with totally Different letters (a-e) are significant)
Background: Tetrazolium dyes change colour on reduction, which living cells bring about.

Series [4] deals with hepatocellular carcinoma (HepG2). The experiment in a line: MTT cytotoxicity assay, HepG2. The format is cell-based. To be noted: Homo sapiens, 24 h treatment, read-out: IC50 against HepG2. How it is done: (§8) (Supplementary file). Compounds 5b and 5h were screened for their effects on the normal breast cell line MCF‐10a. Cells at a density of 1 × 104 were seeded in a 96‐well plate at 37 °C for 48 h under 5% CO2. After incubation, the cells were treated with different concentrations of the prepared molecules and incubated for 24 h. MTT dye was added after 24 h of drug treatment and incubated for 4 h at 37 °C. Also, 100 μl of dimethyl sulphoxide was added to each well to dissolve the purple formazan formed. The colour intensity of the formazan product, which represents the growth condition of the cells, was quantified using an enzyme‐linked immunosorbent assay (ELISA) plate reader at 570 nm. The experiments were carried out with at least three replicates and they were repeated at least three times.
as §1, §2, §3, §4, §5, §6, §7

Series [5] concerns normal breast cell line (MCF-10a). The experiment in a line: MTT cytotoxicity assay, normal breast cell line MCF-10a. The format is cell-based. Conditions: Homo sapiens, 24 h treatment, read-out: IC50 against MCF-10a (normal cell). How it is done: as §8, §4, §5, §6
Means with any Common letter (a-e) are not significant (OR Means with totally Different letters (a-e) are significant) Annexin V-FITC/PI Apoptosis Induction Analysis 3
Apoptosis detection in MCf-7 cells was assessed using BioVision® annexin‐V‐FITC apoptosis detection kit according to the manufacturer's instructions and quantified by flow cytometry at 488

Series [6] concerns MCF-7 cells. The experiment in a line: Annexin V-FITC/PI apoptosis induction analysis (flow cytometry). The format is cell-based, human. Conditions: MCF-7, compound at its IC50, 24 h.
Series [7] has as its system human breast adenocarcinoma (MCF-7). The experiment in a line: MTT cytotoxicity assay, MCF-7. To be noted: for IC50: Homo sapiens, MCF7, MTT, 24 h treatment, read-out: IC50 against MCF-7; for folds more active than doxorubicin: MCF-7; for Selectivity Index (SI): against MCF-7, relative to normal MCF-10a. The format is cell-based. How it is done:
as §8, §1, §2, §3, §4, §5, §6, §7

The target in series [8] is T1, human DNA topoisomerase II-β (TOPII-β) (Homo sapiens, UniProt Q02880).
T1 construct: own knowledge) MBS#942146
The experiment in a line: In vitro topoisomerase II inhibitory assay (ELISA kit). The format is biochemical. To be noted: ELISA kit MBS#942146; read-out: IC50 against topo II enzyme.
Text: Doxorubicin was used as a positive control. […] (Supplementary file).
SEM: Standard error of mean
as §6
Means with any Common letter (a-d) are not significant (OR Means with totally Different letters (a-d) are significant)
Doxorubicin was used as a positive control.
(An ELISA detects its analyte on a solid surface through an enzyme-linked reagent.)

T1 sequence (Q02880 whole entry): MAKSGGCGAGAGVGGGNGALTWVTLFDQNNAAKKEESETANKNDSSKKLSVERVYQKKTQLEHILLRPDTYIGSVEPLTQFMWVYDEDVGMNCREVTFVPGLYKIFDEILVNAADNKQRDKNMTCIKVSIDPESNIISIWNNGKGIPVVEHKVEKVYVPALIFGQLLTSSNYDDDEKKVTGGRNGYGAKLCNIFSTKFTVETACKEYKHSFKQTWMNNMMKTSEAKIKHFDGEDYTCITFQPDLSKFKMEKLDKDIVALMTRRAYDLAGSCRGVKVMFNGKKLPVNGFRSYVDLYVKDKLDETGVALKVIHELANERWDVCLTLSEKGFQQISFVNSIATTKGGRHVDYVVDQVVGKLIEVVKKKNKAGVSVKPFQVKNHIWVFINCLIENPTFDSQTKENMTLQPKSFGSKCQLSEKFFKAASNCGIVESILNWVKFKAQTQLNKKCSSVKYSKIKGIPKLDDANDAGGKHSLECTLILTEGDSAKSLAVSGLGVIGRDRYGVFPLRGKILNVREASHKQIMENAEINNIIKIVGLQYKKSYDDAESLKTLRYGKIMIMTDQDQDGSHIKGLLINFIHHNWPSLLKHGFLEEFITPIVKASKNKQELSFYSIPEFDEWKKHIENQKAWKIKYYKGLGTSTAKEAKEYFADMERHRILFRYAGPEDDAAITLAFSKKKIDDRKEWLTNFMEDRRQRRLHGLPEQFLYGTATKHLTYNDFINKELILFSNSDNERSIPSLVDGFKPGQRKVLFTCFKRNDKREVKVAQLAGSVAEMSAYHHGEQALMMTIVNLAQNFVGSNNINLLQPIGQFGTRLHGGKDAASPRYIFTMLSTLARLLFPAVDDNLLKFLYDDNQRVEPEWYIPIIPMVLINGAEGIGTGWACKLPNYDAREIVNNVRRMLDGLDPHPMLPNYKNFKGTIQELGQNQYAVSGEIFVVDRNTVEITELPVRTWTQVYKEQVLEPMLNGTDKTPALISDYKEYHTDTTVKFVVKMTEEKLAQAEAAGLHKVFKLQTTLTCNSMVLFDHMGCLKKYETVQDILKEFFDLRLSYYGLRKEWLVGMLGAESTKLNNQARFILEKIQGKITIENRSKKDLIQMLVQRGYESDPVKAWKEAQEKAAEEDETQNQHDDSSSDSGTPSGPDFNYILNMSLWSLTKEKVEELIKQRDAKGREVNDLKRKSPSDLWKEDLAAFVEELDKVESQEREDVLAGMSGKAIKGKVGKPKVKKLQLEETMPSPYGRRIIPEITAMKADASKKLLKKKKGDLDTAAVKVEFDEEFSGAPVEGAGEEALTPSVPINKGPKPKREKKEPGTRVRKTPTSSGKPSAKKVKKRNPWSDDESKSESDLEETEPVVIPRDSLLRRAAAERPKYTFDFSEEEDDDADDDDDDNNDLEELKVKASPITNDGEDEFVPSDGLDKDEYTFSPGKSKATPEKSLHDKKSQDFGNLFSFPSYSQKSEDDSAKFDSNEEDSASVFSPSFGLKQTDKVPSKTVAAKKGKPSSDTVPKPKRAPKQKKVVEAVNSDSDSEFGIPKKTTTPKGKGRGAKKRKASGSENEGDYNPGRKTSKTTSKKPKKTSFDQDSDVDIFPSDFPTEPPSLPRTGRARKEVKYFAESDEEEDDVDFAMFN

With `O=C1C(=Nn2cc(-c3ccccc3)n(-c3ccccc3)c2=S)c2cccc3cccc1c23` [5b, 2-((3,4-Diphenyl-2-thioxo-2,3-dihydro-1H-imidazol-1-yl)imino)acenaphthylen-1(2H)-one], the melting point lay in the range of 240 to 242 °C. Also, in series [1], the “Phase of cell cycle arrest” value was “S phase”, the “Cell cycle arrest (%) G0-G1” value is reported as 52.7 ± 0.30%, the “Cell cycle arrest (%) G2/M” value was found to be 13.4 ± 0.41% and the “Cell cycle arrest (%) S” value is given as 33.8 ± 0.70%. In addition, in [2], the “Tb luminescence enhancement (induced DNA damage)” value (shortened to “Tb luminescence enhancement”) is recorded as “significant enhancement”, the “Concentration at which Tb luminescence stops increasing (maximum DNA damage)” value turned out to be 100 µM, the “LOD (limit of detection; minimum concentration inducing detectable damage in ctDNA)” value was found to be 7.78 nM and the “LOQ (limit of quantitation)” value amounted to 25.9 nM. Further, in series [3], the 50% inhibitory concentration (IC50) stood at 17.1 µM. In addition, in [4], the 50% inhibitory concentration (IC50) stood at 7.4 µM. For the same compound, the IC50 in series [5] is 89.8 µM. In addition, in series [6], the “Apoptosis results: Early apoptosis” value is listed as 15.3 ± 0.50%; the “Apoptosis results: Late apoptosis” value was 22.7 ± 0.43% and 22.69%; the “Apoptosis results: Necrosis” value amounted to 8.7 ± 0.44%; the “Apoptosis results: Total” value is reported as 46.6 ± 0.57%. For the same compound, in series [7], the IC50 is 5.11 µM, the “folds more active than doxorubicin” value was 1.5 folds and the “Selectivity Index (SI)” value is 17.58.
`O=C1C(=Nn2cc(-c3ccc(Cl)cc3)n(-c3ccccc3)c2=S)c2cccc3cccc1c23` [5h, 2-((4-(4-chlorophenyl)-3-phenyl-2-thioxo-2,3-dihydro-1H-imidazol-1-yl)imino)-acenaphthylen-1(2H)-one] displayed a melting point of 260 to 262 °C. Further, in series [1], the “Phase of cell cycle arrest” value is “S phase”, the “Cell cycle arrest (%) G0-G1” value is reported as 48.6 ± 0.73%, the “Cell cycle arrest (%) G2/M” value worked out at 9.7 ± 0.36% and the “Cell cycle arrest (%) S” value was found to be 41.7 ± 0.39%. Also, in series [2], the “Tb luminescence enhancement” value was “significant enhancement”, the “Concentration at which Tb luminescence stops increasing (maximum DNA damage)” value is 100 µM, the “LOD (limit of detection; minimum concentration inducing detectable damage in ctDNA)” value came to 7.14 nM and the “LOQ (limit of quantitation)” value came out at 23.8 nM. Moreover, the IC50 in [3] came to 43.5 µM. The IC50 in [4] came to 4.93 µM. Moreover, the half-inhibitory concentration (IC50) in series [5] turned out to be 131 µM. Further, in series [6], the “Apoptosis results: Early apoptosis” value is 16.5 ± 0.64%; the “Apoptosis results: Late apoptosis” value is 28.4 ± 0.62% and 28.52%; the “Apoptosis results: Necrosis” value came out at 7.5 ± 0.68%; the “Apoptosis results: Total” value was 52.5 ± 0.68%. In addition, in series [7], the half-maximal inhibitory concentration (IC50) was determined as 2.65 µM, the “folds more active than doxorubicin” value was found to be 3 folds and the “Selectivity Index (SI)” value is 49.27. The concentration for half-maximal inhibition (IC50) in series [8] turned out to be 0.34 µM.
As to `COc1cccc2c1C(=O)c1c(O)c3c(c(O)c1C2=O)C[C@@](O)(C(=O)CO)C[C@@H]3O[C@H]1C[C@H](N)[C@H](O)[C@H](C)O1` [doxorubicin, reference compound], the “Phase of cell cycle arrest” value in [1] is “G1/S phase”. Moreover, in series [1] (listed as Dox), the “Cell cycle arrest (%) G0-G1” value is reported as 63.5 ± 0.51%, the “Cell cycle arrest (%) G2/M” value is recorded as 2.4 ± 0.73% and the “Cell cycle arrest (%) S” value came out at 34.2 ± 0.22%. Moreover, in series [2], the “Tb luminescence enhancement” value is “significant enhancement”, the “LOD (limit of detection; minimum concentration inducing detectable damage in ctDNA)” value turned out to be 4.09 nM and the “LOQ (limit of quantitation)” value amounted to 13.7 nM. Moreover, in series [5], the half-maximal inhibitory concentration (IC50) turned out to be 32.4 µM. Besides, in series [6], the “Apoptosis results: Early apoptosis” value is on record as 8.3 ± 0.53%, the “Apoptosis results: Late apoptosis” value turned out to be 31.3 ± 0.62% and the “Apoptosis results: Total” value is 46.2 ± 0.53%. Also, in series [6] (listed as Dox), the “Apoptosis results: Early apoptosis” value is 8.3 ± 0.53%, the “Apoptosis results: Late apoptosis” value worked out at 31.3 ± 0.62% and the “Apoptosis results: Necrosis” value stood at 6.6 ± 0.61%. For the same compound, in series [7], the IC50 was 8.24 µM and the “Selectivity Index (SI)” value stood at 3.9.
